Data taken from BindingDB's records for doi:10.1021/jm00167a014 (Merrell Dow Research Institute, 1990).

Target: Peroxisomal N(1)-acetyl-spermine/spermidine oxidase (Rattus norvegicus)
Assay: Tested for in vitro binding affinity against polyamine oxidase after intraperitoneal administration in the rat liver

| Ki | Structure (SMILES) |
| --- | --- |
| 2500 nM | C=C=CCNCCCNCCCCCCCCNCCCNCC=C=C |
| 3000 nM | C=C=CCNCCCNCCCNCC=C=C |
